Values of other authors in US20030190375A1, “Therapeutical use of sophora flavescens or sophora subprostrata extracts” (priority 2000, published 2003).

Key:
Ishikawa-Var-I cells = conditions: Milligan et al 1999
[1] = Huang, The Pharmacology of Chinese Herbs, 1993

Row | SMILES | oestrogenic potency in vitro (stimulation of alkaline phosphatase) (Ishikawa-Var-I cells) | toxic effects in animal studies [1]
1 | CC(C)=CCc1c(O)cc(O)c2c1O[C@H](c1ccc(O)cc1)CC2=O [8-prenylnaringenine] | significantly more active than the long-familiar phyto-oestrogens such as cumesterol, genistone or daidzin, and produced only a slightly weaker effect than 17β oestradiol | 
2 | O=C1CCC[C@@H]2[C@H]3CCC[N+]4([O-])CCC[C@@H](CN12)[C@@H]34 (some centres unmarked) [oxymatrine] |  | toxic effects could be shown
